Results: article PMC10683482, “Offsetting Low-Affinity Carbohydrate Binding with Covalency to Engage Sugar-Specific Proteins for Tumor-Immune Proximity Induction” (ACS Central Science, 2023)

Key:
anti-23F antibody = assay: Mass spectrometry study of anti-23F labelling; assay type: binding, human; details: 10 µM cARM, 2.7 µM anti-23F, 45 hours
Experimental: To further confirm selectivity, an MS study was conducted to determine the site of labeling (Figures S10 and S11). […] No other labeling site was detected on the light chain; however, the lability of the SO2F-serine/tyrosine linkage to MS sample preparation protocols likely limited complete labeling site coverage. […] Due to the low labeling efficiency of rhamnose-AI-cARM, no labeling site could be identified. […] Determining the selectivity for antirhamnose antibodies in the presence of off-target cell surface proteins will be the focus of future in vivo studies.
Mass Spectrometry Study – Anti-23F Labelling
Anti-23F (2.7 µM) was incubated with 10 µM of Biotin-AI-cAR M 4 or Biotin-SO2F-cAR M 12, or PBS (antibody only) for 45 hours before MS analysis. Analysis was completed by Bioinformatics Solutions
Inc. Briefly, for intact protein analysis each sample was treated with PNGase F to remove glycans followed by LC-MS analysis. To determine site of labelling, each sample was digested with tryspin, chymostrypsin, and pepsin then analyzed by LC-MS/MS on a timsTOF Pro. Peptide spectra were mapped to a known antibody sequence (anti -23F antibody, Creative Biolabs - PABX-173). No labelling was identified with acyl imidazole containing cARM 4. […]
approxima tely 30% labelling post MS protocol (Figure S11)
Figure S10. Sample analysis of peptide mapping of anti-23F heavy chain. Modification with cARM 12 is […]
(1 picture or pasted object on this page, not shown here)

[1] = test system: human IgG (polyclonal antirhamnose antibodies); assay: BLI monitoring of covalent reaction with human IgG (Figure 4B); assay type: binding; details: 10 μM cARM, 230 μM human IgG, up to 25 h
Text: The design of rhamnose-SO2F-cARM was again supported by in-silico docking and predicted to preorganize electrophilic SO2F proximal to lysine 104 and serine 53 of the anti-23F heavy chain as well as tyrosine 32 of the light chain (Figure S3). To evaluate the capacity of rhamnose-SO2F-cARMs to specifically label polyclonal antirhamnose antibodies, a tool cARM with a biotin TBD was synthesized (compound 12, Figure 4A, Scheme S5). As an orthogonal kinetics assay to fluorescent gels, tool compound 12 labeling kinetics was first evaluated using an in-house BLI assay and compared to acyl imidazole cARM and ARM analogs. […] Solutions were immediately loaded onto streptavidin probes (Figure 4B, Figure S8). In this assay, rhamnose competition blocks noncovalent antirhamnose recruitment, thus the signal amplitude is directly proportional to the covalently labeled antibody product.
Figure 4 Selectivity and kinetic analysis of optimized Rha-SO2F-cARMs A. Chemical structures of tool compounds used in this study. B. cARM 12 (10 μM) was incubated with human IgG or BSA (230 μM) then diluted 8× with 100 mM competitor rhamnose spiked kinetics buffer and loaded onto streptavidin probes in BLI. The association plateau was plotted against time to yield the % labeled vs time covalent labeling curve C. Kinetic fluorescence SDS-PAGE assay similar to that in Figure 2D. […]

C[C@@H]1O[C@@H](OCc2cn(CCc3cn(C(=O)OCCOCCOCCOCCOCCOCCOCCOCCNC(=O)CCCC[C@@H]4SC[C@@H]5NC(=O)N[C@@H]54)cn3)nn2)[C@H](O)[C@H](O)[C@H]1O [compound 4]
site of labelling (LC-MS/MS peptide mapping) (anti-23F antibody): No labelling | progress of labeling reaction [1]: still in the linear phase of the reaction
